In patent publication US20250333397A1 (REMIX THERAPEUTICS INC., priority 2021, published 2025):
Like-named read-outs stand apart in the source and are kept apart here.

Tests used:
Assay type in all cases: cell-based, human
[1] = test system: Target C mRNA; test: RT-qPCR splicing assay panel, Target C canonical junction (CJ) mRNA; settings: canonical junction (CJ) mRNA, RT-qPCR panel, Table 4A, read-out: Target C, decrease in CJ mRNA levels, IC50
In short: (§1)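 Cells: A673 (DMEM/10% FBS, plated 24 h before) or K562 (IMDM/10% FBS). Dosing: 11-pt 3-fold series, 10 uM top final, ≤0.25% DMSO, 24 h, 37 °C/5% CO2. Readout: RT-qPCR of CJ and AJ junctions, housekeeper-normalized, RQ = 2^(-ΔΔCt) vs DMSO.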

[2] = test system: MYB mRNA; test: RT-qPCR splicing assay, MYB canonical (CJ) and alternative (AJ) junction mRNA; settings: for AC50: read-out: MYB AJ (AC50, increase in AJ mRNA)
In short: as §1

[3] = test system: HTT mRNA; test: RT-qPCR splicing assay, HTT canonical (CJ) and alternative (AJ) junction mRNA; settings: for AC50: read-out: HTT AJ (AC50, increase in AJ mRNA)
In short: as §1

[4] = test system: SMN2 mRNA; test: RT-qPCR splicing assay panel, SMN2 canonical junction (CJ) mRNA; settings: canonical junction (CJ) mRNA, RT-qPCR panel, Table 4A, read-out: SMN2, decrease in CJ mRNA levels, IC50
In short: as §1

[5] = Homo sapiens, 24 h, Table 3A, A673 or K562 cells, 24 h treatment
[6] = Homo sapiens, 24 h, Table 3A, A673 or K562 cells, 24 h treatment, read-out: MYB CJ (IC50, decrease in CJ mRNA)
[7] = Homo sapiens, canonical junction (CJ) mRNA, RT-qPCR panel, Table 4A, read-out: MYB, decrease in CJ mRNA levels, IC50
[8] = Homo sapiens, 24 h, Table 3A, A673 or K562 cells, 24 h treatment, read-out: HTT CJ (IC50, decrease in CJ mRNA)
[9] = Homo sapiens, canonical junction (CJ) mRNA, RT-qPCR panel, Table 4A, read-out: HTT, decrease in CJ mRNA levels, IC50
[10] = Table 3A, A673 or K562 cells, 24 h treatment

Compound	IC50 ([1]; Homo sapiens) [nM]	AC50 [2, 5] [nM]	IC50 [2, 6] [nM]	IC50 [2, 7] [nM]	AC50 [3, 5] [nM]	IC50 [3, 8] [nM]	IC50 [3, 9] [nM]	IC50 ([4]; Homo sapiens) [nM]	IC50 [1] [nM]	AC50 [2, 10] [nM]	IC50 ([2]; Table 3A, A673 or K562 cells, 24 h treatment, read-out: MYB CJ (IC50, decrease in CJ mRNA)) [nM]	IC50 ([2]; canonical junction (CJ) mRNA, RT-qPCR panel, Table 4A, read-out: MYB, decrease in CJ mRNA levels, IC50) [nM]	AC50 [3, 10] [nM]	IC50 ([3]; Table 3A, A673 or K562 cells, 24 h treatment, read-out: HTT CJ (IC50, decrease in CJ mRNA)) [nM]	IC50 ([3]; canonical junction (CJ) mRNA, RT-qPCR panel, Table 4A, read-out: HTT, decrease in CJ mRNA levels, IC50) [nM]	IC50 [4] [nM]
Cc1ncc(-c2ccc(-c3ccc(N4CC[C@@](C)(NC5CCC5)C4)nn3)c(O)c2)s1 [Compound 356]	100 to 1000	100 to 1000	100 to 1000	100 to 1000	< 100	< 100	< 100	< 100	–	–	–	–	–	–	–	–
COc1cc(-c2cc(O)c(-c3ccc(N4CCC(C)(NC(C)C)C4)nn3)cc2F)cnn1 (stereo not shown) [Compound 284]	100 to 1000	100 to 1000	100 to 1000	100 to 1000	< 100	< 100	< 100	< 100	–	–	–	–	–	–	–	–
CC(C)(C)N[C@@H]1CCN(c2ccc(-c3ccc(-c4cn[nH]c4)cc3O)nn2)C1 [Compound 262]	< 100	< 100	< 100	< 100	< 100	< 100	< 100	< 100	–	–	–	–	–	–	–	–
Cc1ccc(-c2cc(O)c(-c3ccc(N4CC[C@H](NC5CCC5)C4)nn3)cc2F)cn1 [Compound 223, 2-{6-[(3S)-3-(cyclobutylamino)pyrrolidin-1-yl]pyridazin-3-yl}-4-fluoro-5-(6-methylpyridin-3-yl)phenol]	1000 to 10000	100 to 1000	100 to 1000	100 to 1000	100 to 1000	100 to 1000	100 to 1000	100 to 1000	–	–	–	–	–	–	–	–
COc1cc(-c2ccc(-c3ccc(N4CC[C@@H](CNC5CCC5)C4)nn3)c(O)c2)cnn1 [Compound 440, 2-{6-[(3S)-3-[(cyclobutylamino)methyl]pyrrolidin-1-yl]pyridazin-3-yl}-5-(6-methoxypyridazin-4-yl)phenol]	100 to 1000	100 to 1000	100 to 1000	100 to 1000	100 to 1000	< 100	< 100	< 100	–	–	–	–	–	–	–	–
Cc1ncc(-c2ccc(-c3ccc(N4CC[C@@H](N(C)C5CCC5)C4)nn3)c(O)c2)s1 [Compound 270, 2-{6-[(3R)-3-[cyclobutyl(methyl)amino]pyrrolidin-1-yl]pyridazin-3-yl}-5-(2-methyl-1,3-thiazol-5-yl) phenol]	> 10000	> 10000	> 10000	> 10000	> 10000	> 10000	> 10000	100 to 1000	–	–	–	–	–	–	–	–
CCOc1cc(-c2ccc(-c3ccc(N4CCC(NCC5CC5)C4)nn3)c(O)c2)ncn1 (stereo not shown) [Compound 433]	> 10000	> 10000	> 10000	> 10000	> 10000	> 10000	> 10000	> 10000	–	–	–	–	–	–	–	–
Cc1cc(-c2ccc(-c3ccc(N4CCC(NCC5CC5)C4)nn3)c(O)c2)ncn1 (stereo not shown) [Compound 369]	1000 to 10000	1000 to 10000	1000 to 10000	1000 to 10000	1000 to 10000	1000 to 10000	1000 to 10000	100 to 1000	–	–	–	–	–	–	–	–
Cc1nc(C#N)c(-c2cc(O)c(-c3ccc(N4CC[C@@H](NC5CCC5)C4)nn3)cc2F)s1 [Compound 428]	100 to 1000	100 to 1000	100 to 1000	100 to 1000	100 to 1000	100 to 1000	100 to 1000	< 100	–	–	–	–	–	–	–	–
Cc1ccc(-c2cc(O)c(-c3ccc(N4CC[C@@H](NC5CCC5)C4)nn3)cc2F)cn1 [Compound 222]	1000 to 10000	1000 to 10000	100 to 1000	100 to 1000	100 to 1000	100 to 1000	100 to 1000	100 to 1000	–	–	–	–	–	–	–	–
Cc1ncc(-c2cc(O)c(-c3ccc(N4CC[C@@H](NCC5CC5)C4)nn3)cc2F)s1 [Compound 392]	< 100	< 100	< 100	< 100	< 100	< 100	< 100	< 100	–	–	–	–	–	–	–	–
CCc1cc(-c2ccc(-c3ccc(N4CC[C@H](NC5CCC5)C4)nn3)c(O)c2)cnn1 [Compound 278]	> 10000	> 10000	1000 to 10000	1000 to 10000	> 10000	1000 to 10000	1000 to 10000	1000 to 10000	–	–	–	–	–	–	–	–
Cc1nnc(-c2ccc(-c3ccc(N4CC[C@H](NCC5CC5)C4)nn3)c(O)c2)s1 [Compound 414]	100 to 1000	100 to 1000	100 to 1000	100 to 1000	100 to 1000	< 100	< 100	< 100	–	–	–	–	–	–	–	–
COc1cc(-c2ccc(-c3ccc(N4CC[C@@H](NC5(C)CCC5)C4)nn3)c(O)c2)ncn1 [Compound 383, 5-(6-methoxypyrimidin-4-yl)-2-{6-[(3R)-3-[(1-methylcyclobutyl)amino]pyrrolidin-1-yl]pyridazin-3-yl}phenol]	< 100	100 to 1000	100 to 1000	100 to 1000	< 100	< 100	< 100	< 100	–	–	–	–	–	–	–	–
COc1cc(-c2ccc(-c3ccc(N4CC[C@H](NC5(C)CC5)C4)nn3)c(O)c2)cnn1 [Compound 265, 5-(6-methoxypyridazin-4-yl)-2-{6-[(3S)-3-[(1-methylcyclopropyl)amino]pyrrolidin-1-yl]pyridazin-3-yl}phenol]	–	–	–	–	–	–	–	–	< 100	< 100	< 100	< 100	< 100	< 100	< 100	< 100
Cn1ccc(-c2ccc(-c3ccc(N4CCC(NC5CCC5)C4)nn3)c(O)c2)nc1=O (stereo not shown) [Compound 306]	1000 to 10000	1000 to 10000	1000 to 10000	1000 to 10000	1000 to 10000	1000 to 10000	1000 to 10000	100 to 1000	–	–	–	–	–	–	–	–
Oc1cc(-c2cnc(C(F)(F)F)s2)c(F)cc1-c1ccc(N2CCC(NC3CCC3)C2)nn1 (stereo not shown) [Compound 390]	> 10000	> 10000	> 10000	> 10000	> 10000	> 10000	> 10000	1000 to 10000	–	–	–	–	–	–	–	–
